# Test system: yeast cells expressing low levels of huntingtin
# Assay: Huntingtin toxicity in yeast grown in the presence of an ER stress inducer (FIG. 6B)
# Assay type: cell-based
# Details: yeast cells grown in the presence of tunicamycin, low levels of huntingtin expressed
# From the text: The unfolded protein response in yeast is depicted in FIG. 6A. […] Conversely, expression of constitutively active IRE1 or HAC (proteins that induce the UPR) ameliorated the toxic effects of high level expression of 103 Q huntingtin in yeast (FIGS. 6D and 6E).
substance,measurement,value
tunicamycin,huntingtin toxicity in yeast cells,enhanced toxicity
